Measured values: PubChem BioAssay AID256 (DTP/NCI, 2004)
Where “and” joins values, the source holds several entries; their conditions need not be identical. Identical values can stand only once. Toxic doses and inconclusive results are not listed.

Tested on: CD2F1 mice, L1210 leukemia ip, survival T/C
Test: NCI In Vivo Anticancer Drug Screen. Data for tumor model L1210 Leukemia (intraperitoneal) in CD2F1 (CDF1) mice
Conditions: higher = longer survival
Method in brief: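 Compound-dosed mice with transplantable tumor versus matched vehicle controls; endpoint ratio T/C reported.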

[1] = endpoint: mean survival time, dose: 400.0 mg/kg/injection, schedule: Q01DX001 (ip), vehicle: saline with Tween-80
[2] = endpoint: mean survival time, dose: 100.0 mg/kg/injection, schedule: Q04DX003 (ip), vehicle: saline with Tween-80
[3] = endpoint: mean survival time, dose: 200.0 mg/kg/injection, schedule: Q04DX003 (ip), vehicle: saline with Tween-80
[4] = endpoint: mean survival time, dose: 400.0 mg/kg/injection, schedule: Q04DX003 (ip), vehicle: saline with Tween-80
[5] = endpoint: mean survival time, dose: 12.5 mg/kg/injection, schedule: Q01DX005 (ip), vehicle: distilled water + Tween-80
[6] = endpoint: mean survival time, dose: 25.0 mg/kg/injection, schedule: Q01DX005 (ip), vehicle: distilled water + Tween-80
[7] = endpoint: mean survival time, dose: 50.0 mg/kg/injection, schedule: Q01DX005 (ip), vehicle: distilled water + Tween-80
[8] = endpoint: mean survival time, dose: 100.0 mg/kg/injection, schedule: Q01DX005 (ip), vehicle: distilled water + Tween-80
[9] = endpoint: mean survival time, dose: 200.0 mg/kg/injection, schedule: Q01DX005 (ip), vehicle: distilled water + Tween-80
[10] = endpoint: mean survival time, dose: 100.0 mg/kg/injection, schedule: Q01DX009 (ip), vehicle: saline with Tween-80
[11] = endpoint: mean survival time, dose: 200.0 mg/kg/injection, schedule: Q01DX009 (ip), vehicle: saline with Tween-80
[12] = endpoint: mean survival time, dose: 400.0 mg/kg/injection, schedule: Q01DX009 (ip), vehicle: saline with Tween-80
[13] = endpoint: mean survival time, dose: 12.5 mg/kg/injection, schedule: Q01DX001 (ip), vehicle: Klucel (hydroxypropylcellulose) (HPC)
[14] = endpoint: mean survival time, dose: 25.0 mg/kg/injection, schedule: Q01DX001 (ip), vehicle: Klucel (hydroxypropylcellulose) (HPC)
[15] = endpoint: mean survival time, dose: 50.0 mg/kg/injection, schedule: Q01DX001 (ip), vehicle: Klucel (hydroxypropylcellulose) (HPC)
[16] = endpoint: mean survival time, dose: 50.0 mg/kg/injection, schedule: Q01DX009 (ip), vehicle: saline with Tween-80
[17] = endpoint: mean survival time, dose: 100.0 mg/kg/injection, schedule: Q01DX001 (ip), vehicle: saline with Tween-80
[18] = endpoint: mean survival time, dose: 200.0 mg/kg/injection, schedule: Q01DX001 (ip), vehicle: saline with Tween-80
[19] = endpoint: mean survival time, dose: 50.0 mg/kg/injection, schedule: Q01DX001 (ip), vehicle: saline with Tween-80

`CN(C(=O)N(CCCl)N=O)C1CCCCC1` was tested, and the T/C (endpoint: mean survival time, dose: 16.0 mg/kg/injection, schedule: Q01DX001 (ip), vehicle: saline with Tween-80) was 96 % of control, the T/C (endpoint: mean survival time, dose: 24.0 mg/kg/injection, schedule: Q01DX001 (ip), vehicle: saline with Tween-80) was 98 % of control and the T/C (endpoint: mean survival time, dose: 36.0 mg/kg/injection, schedule: Q01DX001 (ip), vehicle: saline with Tween-80) was 108 % of control. The T/C (endpoint: mean survival time, dose: 54.0 mg/kg/injection, schedule: Q01DX001 (ip), vehicle: saline with Tween-80) was 110 % of control, the T/C (endpoint: mean survival time, dose: 80.0 mg/kg/injection, schedule: Q01DX001 (ip), vehicle: saline with Tween-80) was 123 % of control and the T/C (endpoint: mean survival time, dose: 180.0 mg/kg/injection, schedule: Q01DX001 (ip), vehicle: saline with Tween-80) was 236 % of control. For the same molecule, the T/C (endpoint: mean survival time, dose: 268.0 mg/kg/injection, schedule: Q01DX001 (ip), vehicle: saline with Tween-80) was 396 % of control and the T/C [1] was 353 % of control.
With `COc1c(/C=C/CO)cc2c(c1OC)OCO2` the T/C [2] was 95 % of control, the T/C [3] was 102 % of control and the T/C [4] was 102 % of control.
For `c1ccc(N/N=C(/C[n+]2cc3ccccc3c3ccccc32)c2ccccc2)cc1`, the T/C (endpoint: mean survival time, dose: 100.0 mg/kg/injection, schedule: Q04DX003 (ip), vehicle: Klucel (hydroxypropylcellulose) (HPC)) was 94 % of control, the T/C (endpoint: mean survival time, dose: 200.0 mg/kg/injection, schedule: Q04DX003 (ip), vehicle: Klucel (hydroxypropylcellulose) (HPC)) was 106 % of control and the T/C (endpoint: mean survival time, dose: 400.0 mg/kg/injection, schedule: Q04DX003 (ip), vehicle: Klucel (hydroxypropylcellulose) (HPC)) was 109 % of control.
For `CC1=CC(=O)C(c2ccc(O)cc2O)=CC1=O`, the T/C (endpoint: mean survival time, dose: 2.5 mg/kg/injection, schedule: Q01DX009 (ip), vehicle: saline with Tween-80) was 96 % of control, the T/C (endpoint: mean survival time, dose: 2.5 mg/kg/injection, schedule: Q04DX003 (ip), vehicle: saline with Tween-80) was 102 % of control and the T/C (endpoint: mean survival time, dose: 5.0 mg/kg/injection, schedule: Q01DX009 (ip), vehicle: saline with Tween-80) was 91 % of control. For the same molecule, the T/C (endpoint: mean survival time, dose: 5.0 mg/kg/injection, schedule: Q04DX003 (ip), vehicle: saline with Tween-80) was 104 % of control, the T/C (endpoint: mean survival time, dose: 10.0 mg/kg/injection, schedule: Q01DX009 (ip), vehicle: saline with Tween-80) was 95 % of control and the T/C (endpoint: mean survival time, dose: 10.0 mg/kg/injection, schedule: Q04DX003 (ip), vehicle: saline with Tween-80) was 95 % of control.
With `CC(=O)Cc1cc(=O)n(C2OC(COC(=O)c3ccccc3)C(OC(=O)c3ccccc3)C2OC(=O)c2ccccc2)c(=O)[nH]1` (configuration not stated) the T/C [5] was 97 % of control, the T/C [6] was 97 % of control and the T/C [7] was 105 % of control. The T/C [8] was 95 % of control and the T/C [9] was 100 % of control.
With `COc1ccc(/C=N\NC(=O)c2ccccc2)cc1` the T/C [10] was 95 % of control, the T/C [11] was 95 % of control and the T/C [12] was 86 % of control.
For `CC(=O)OCC1OC(OC(C)=O)C(NC(=S)N(C)N=O)C(OC(C)=O)C1OC(C)=O` (configuration not stated), the T/C (endpoint: mean survival time, dose: 12.5 mg/kg/injection, schedule: Q04DX002 (ip), vehicle: distilled water + Tween-80) was 106 % of control, the T/C (endpoint: mean survival time, dose: 25.0 mg/kg/injection, schedule: Q04DX002 (ip), vehicle: distilled water + Tween-80) was 103 % of control and the T/C (endpoint: mean survival time, dose: 50.0 mg/kg/injection, schedule: Q04DX002 (ip), vehicle: distilled water + Tween-80) was 113 % of control. For the same molecule, the T/C (endpoint: mean survival time, dose: 100.0 mg/kg/injection, schedule: Q04DX002 (ip), vehicle: distilled water + Tween-80) was 118 % of control and 120 % of control.
For `NC(CS)=NCC12CC3CC(CC(C3)C1)C2`, the T/C [13] was 92 % of control, the T/C [14] was 94 % of control and the T/C [15] was 101 % of control.
`COC12C(COC(N)=O)C3=C(C(=O)C(C)=C(NC4CONC4=O)C3=O)N1CC1NC12` (configuration not stated) was tested, and the T/C (endpoint: mean survival time, dose: 1.5 mg/kg/injection, schedule: Q01DX001 (ip), vehicle: water) was 97 % of control, the T/C (endpoint: mean survival time, dose: 3.0 mg/kg/injection, schedule: Q01DX001 (ip), vehicle: water) was 98 % of control and the T/C (endpoint: mean survival time, dose: 6.0 mg/kg/injection, schedule: Q01DX001 (ip), vehicle: water) was 95 % of control. For the same molecule, the T/C (endpoint: mean survival time, dose: 12.0 mg/kg/injection, schedule: Q01DX001 (ip), vehicle: water) was 98 % of control, the T/C (endpoint: mean survival time, dose: 24.0 mg/kg/injection, schedule: Q01DX001 (ip), vehicle: water) was 97 % of control and the T/C (endpoint: mean survival time, dose: 50.0 mg/kg/injection, schedule: Q01DX001 (ip), vehicle: distilled water + Tween-80) was 112 % of control. The T/C (endpoint: mean survival time, dose: 100.0 mg/kg/injection, schedule: Q01DX001 (ip), vehicle: distilled water + Tween-80) was 114 % of control.
For `O=Cc1cccc(O)c1O`, the T/C [2] was 96 % of control, the T/C [3] was 102 % of control and the T/C [4] was 103 % of control.
For `C=C1C(O)CC2CC1C2(C)C` (configuration not stated), the T/C [16] was 98 % of control.
For `O=C(CCCCl)Oc1ccccc1`, the T/C [2] was 87 % of control, the T/C [3] was 87 % of control and the T/C [4] was 103 % of control.
With `Cc1[nH]c(=S)[nH]c(=O)c1CCO` the T/C [17] was 105 % of control, the T/C [10] was 101 % of control and the T/C [18] was 95 % of control. For the same molecule, the T/C [11] was 103 % of control, the T/C [1] was 100 % of control and the T/C [12] was 101 % of control.
For `O=C(O)c1ccccc1SSc1ccccc1C(=O)O`, the T/C [16] was 89 % of control, the T/C [10] was 101 % of control and the T/C [2] was 102 % of control. The T/C [11] was 95 % of control and the T/C [3] was 104 % of control.
For `O=[N+]([O-])O.O=[N+]([O-])O.[Cu].c1ccc(CN2CCN(Cc3ccccc3)CCN(Cc3ccccc3)CCN(Cc3ccccc3)CC2)cc1`, the T/C (endpoint: mean survival time, dose: 6.25 mg/kg/injection, schedule: Q01DX001 (ip), vehicle: Klucel (hydroxypropylcellulose) (HPC)) was 91 % of control, the T/C [13] was 94 % of control and the T/C [14] was 108 % of control. The T/C [15] was 100 % of control.
In the case of `Clc1cc(Cl)c(CBr)cc1CBr`, the T/C (endpoint: mean survival time, dose: 12.5 mg/kg/injection, schedule: Q01DX009 (ip), vehicle: saline with Tween-80) is reported as 91 % of control and the T/C [3] is reported as 90 % of control.
With `CC(=O)OC1C(C)OC(n2ncc(=O)[nH]c2=O)C(OC(C)=O)C1OC(C)=O` (configuration not stated) the T/C [5] was 103 % of control, the T/C [6] was 100 % of control and the T/C [7] was 103 % of control. For the same molecule, the T/C [8] was 103 % of control and the T/C [9] was 107 % of control.
For `O=C(O)/C=C/c1ccc([N+](=O)[O-])o1`, the T/C (endpoint: mean survival time, dose: 25.0 mg/kg/injection, schedule: Q01DX001 (ip), vehicle: saline with Tween-80) was 96 % of control, the T/C [19] was 89 % of control and the T/C [17] was 115 % of control and 98 % of control. The T/C [18] was 94 % of control.
For `Cc1nc2ccc(Cl)c(Cl)c2s1`, the T/C [2] was 106 % of control, the T/C [3] was 106 % of control and the T/C [4] was 104 % of control.
`C[n+]1c(-c2ccc(/C=N/NC(=O)c3ccc(C(=O)N/N=C/c4ccc(-c5cn6ccccc6[n+]5C)cc4)cc3)cc2)cn2ccccc21` was tested, and the T/C (endpoint: median survival time, dose: 25.0 mg/kg/injection, schedule: Q01DX005 (ip), vehicle: saline with Tween-80) was 162 % of control, the T/C (endpoint: median survival time, dose: 43.2 mg/kg/injection, schedule: Q01DX005 (ip), vehicle: saline with Tween-80) was 200 % of control and the T/C (endpoint: median survival time, dose: 72.0 mg/kg/injection, schedule: Q01DX005 (ip), vehicle: saline with Tween-80) was 362 % of control. For the same molecule, the T/C (endpoint: median survival time, dose: 100.0 mg/kg/injection, schedule: Q01DX005 (ip), vehicle: saline with Tween-80) was 307 % of control, the T/C (endpoint: median survival time, dose: 120.0 mg/kg/injection, schedule: Q01DX005 (ip), vehicle: saline with Tween-80) was 375 % of control and the T/C (endpoint: median survival time, dose: 200.0 mg/kg/injection, schedule: Q01DX005 (ip), vehicle: saline with Tween-80) was 329 % of control and 375 % of control. For the same molecule, the T/C (endpoint: median survival time, dose: 333.33 mg/kg/injection, schedule: Q01DX005 (ip), vehicle: saline with Tween-80) was 162 % of control and the T/C (endpoint: median survival time, dose: 400.0 mg/kg/injection, schedule: Q01DX005 (ip), vehicle: saline with Tween-80) was 329 % of control.
`CNC(=O)Nc1cccc(OS(=O)(=O)N(C)C)c1` was tested, and the T/C [10] was 92 % of control, the T/C [11] was 95 % of control and the T/C [12] was 95 % of control.
For `O=C(O)CCCCCCCCCO`, the T/C [17] was 91 % of control, the T/C [18] was 87 % of control and the T/C [1] was 86 % of control.
`S=P(Cc1ccccc1)(c1ccccc1)c1ccccc1` was tested, and the T/C [16] was 89 % of control, the T/C [10] was 90 % of control and the T/C [2] was 88 % of control. For the same molecule, the T/C [3] was 86 % of control.
`CC(CCOc1ccc2ccc(=O)oc2c1)C1=CC(=O)C(C)(C)O1` (configuration not stated) was tested, and the T/C [19] was 113 % of control, the T/C [17] was 95 % of control and the T/C [18] was 98 % of control.
For `COc1ccc(-c2cc(=O)c3ccc(O)cc3o2)cc1`, the T/C (endpoint: mean survival time, dose: 75.0 mg/kg/injection, schedule: Q01DX001 (ip), vehicle: saline) was 104 % of control, the T/C (endpoint: mean survival time, dose: 150.0 mg/kg/injection, schedule: Q01DX001 (ip), vehicle: saline) was 90 % of control and the T/C (endpoint: mean survival time, dose: 300.0 mg/kg/injection, schedule: Q01DX001 (ip), vehicle: saline) was 104 % of control.
